Laboratory results reported in patent publication US10494380B2, “Nitrogen-containing tricyclic derivatives having HIV replication inhibitory activity” (priority 2015, dated 2019).
Read-outs that look alike come from different tables or passages of the source.

Tests used:
[1] = test system: HIV (HTLV-IIIB strain); test: HIV replication inhibition assay (Test Example 1; MT-4 cells, MTT); type: cell-based; conditions: MT-4 cells, MTT; for EC50: read-out: EC50; for EC90: read-out: EC90
Method: HIV (HTLV-IIIB strain) persistent infected human T cell strain Molt-4 clone8 was cultured in RPMI-1640 medium supplemented with 10% fetal bovine serum and the supernatant was filtered, then the virus titer was measured and stored at −80° C. Each anti-human immunodeficiency virus active substance was diluted with the above culture medium to the designated concentration, which was dispensed into 96-well microtiter plate by 50 μL. Next, 100 μL of MT-4 cell suspension (2.5×10^4 cells) was dispensed into each well, then 50 μl of the above HIV-containing supernatant diluted with the above culture medium was added thereto (60 pfu (plaque forming unit)).
Cell mixture was cultured at 37° C. in CO2 incubator for four days, then 30 μL of MTT (3-(4,5-dimethylthiazole-2-yl)-2,5-diphenyltetrazolyum bromide) reagent (5 mg/mL in PBS) was added to all wells followed by incubation for 1 hour. In this step, MTT was reduced to insoluble formazan in living cells. To elute generated formazan 150 μL of the culture supernatant was removed from all wells, then 150 μL of cell lysis solution (10% Triton X-100 and 0.4% (v/v)-HCl containing isopropanol) was added thereto, followed by shaking with a plate mixer. The formazan was measured with micro plate reader at OD: 560 nm and 690 nm (reference wavelength) and the result was compared with the reference wells. EC50 and EC90 mean the compound concentration at which cytotoxicity caused by virus infection is inhibited 50% and 90%, respectively.

[2] = test system: T125A mutant virus (HIV-1 NL-432 recombinant molecular clone, IN gene); test: HIV replication inhibition assay against integrase 124/125 mutant virus (Test Example 2); type: cell-based
How it was run: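 EC50 is the compound concentration blocking half of virus-induced cell death, measured by MTT (OD 560 nm, 690 nm reference) after 4 days at 37 °C. Integrase 124/125 mutant NL-432 virus from transfected 293T cells (60 pfu) was added to 2.5×10^4 MT-4 cells with compound.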

[3] = test system: sheep red blood cells (RBC); test: Photohemolysis test (Test Example 13); type: cell-based; conditions: 0.0008 to 0.1 w/v %, 10 J/cm2 UV-irradiation (290-400 nm)
Excerpt: Aliquots of sheep red blood cells (RBC) suspension prepared with medium to make a 2.5 v/v % concentration are dispensed into microplates. The compound of the present invention was desolved with a vehicle to make target concentrations and then these solutions were immediately added (in concentrations of 0.0008 to 0.1 w/v %) into the microplates. The mixtures on the microplates were exposed to 10 J/cm2 of UV-irradiation (UV-A and UV-B, 290-400 nm) with a GL20SE lamp (SANKYO DENKI) and a FL20S-BLB lamp (Panasonic). After the UV-irradiation, the mixtures were centrifuged. Aliquots of supernatant were transferred to a microplate. Absorbance of the supernatants was measured at 540 nm and 630 nm for judgement of the potential of phototoxicity. In the study, two endpoints were evaluated in biomembrane impairment (% of photohemolysis index; PI) and hyperoxidation of lipid membrane (methemoglobin formation; met-Hb) with the absorbance at 540 nm and 630 nm, respectively. PI and met-Hb were assessed based on the negative criteria (−), PI<10% and changes in absorbance at 630 nm<0.05, respectively. All else was judged as positive (+).

[4] = test system: HIV; type: cell-based; conditions: EC50 in the presence of human serum (25%) versus without human serum, MT-4 cells
How it was run: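 HIV-infected MT-4 cells (3×10^4/well, infected 1 h at 37° C) are grown 4 days with compound that was first mixed 1 h with human serum or with medium only. Potency shift is the EC50 with serum divided by the EC50 without serum.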

[5] = molecular target: CYP2C9 (Homo sapiens (Human), UniProt P11712); test: CYP inhibition assay, tolbutamide methyl-hydroxylation (Test Example 4); type: in vitro ADME; conditions: pooled human hepatic microsome, 100 μmol/L tolbutamide, 15 minutes, 37° C.
Method: Using commercially available pooled human hepatic microsome, and employing, as markers, 7-ethoxyresorufin O-deethylation (CYP1A2), tolbutamide methyl-hydroxylation (CYP2C9), mephenytoin 4′-hydroxylation (CYP2C19), dextromethorphan O-demethylation (CYP2D6), and terfenadine hydroxylation (CYP3A4) as typical substrate metabolism reactions of human main five CYP enzyme forms (CYP1A2, 2C9, 2C19, 2D6, 3A4) an inhibitory degree of each metabolite production amount by a test compound was assessed.
The reaction conditions were as follows: substrate, 0.5 μmol/L ethoxyresorufin (CYP1A2), 100 μmol/L tolbutamide (CYP2C9), 50 μmol/L S-mephenytoin (CYP2C19), 5 μmol/L dextromethorphan (CYP2D6), 1 μmol/L terfenedine (CYP3A4); reaction time, 15 minutes; reaction temperature, 37° C.; enzyme, pooled human hepatic microsome 0.2 mg protein/mL; test drug concentration, 1, 5, 10, 20 μmol/L (four points).
Each five kinds of substrates, human hepatic microsome, and a test drug in 50 mmol/L Hepes buffer as a reaction solution was added to a 96-well plate as the composition ad described above, NADPH, as a coenzyme was added to initiate metabolism reactions as markers and, after the incubation at 37° C. for 15 minutes, a methanol/acetonitrile=1/1 (V/V) solution was added to stop the reaction. After the centrifugation at 3000 rpm for 15 minutes, resorufin (CYP1A2 metabolite) in the supernatant was quantified by a fluorescent multilabel counter and tolbutamide hydroxide (CYP2C9 metabolite), mephenytoin 4′ hydroxide (CYP2C19 metabolite), dextrorphan (CYP2D6 metabolite), and terfenadine alcohol (CYP3A4 metabolite) were quantified by LC/MS/MS.

[6] = molecular target: CYP3A4 (Homo sapiens (Human), UniProt P08684); test: CYP3A4 (MDZ) MBI test (Test Example 6); conditions: pooled human liver microsomes, midazolam 1-hydroxylation, preincubation 0 or 30 min
[7] = Human immunodeficiency virus 1, MT4, 96 h, HIV (HTLV-IIIB strain), four days
[8] = Human immunodeficiency virus 1, MT4, read-out: EC50 against T125A mutant virus, T125A mutant virus (HIV-1 NL-432 IN gene), MT-4 cells, MTT
[9] = HIV (HTLV-IIIB strain), four days
[10] = HIV HTLV-IIIB strain, cultured four days
[11] = T125A mutant virus (HIV-1 NL-432 IN gene), MT-4 cells, MTT, read-out: EC50 against T125A mutant virus

Chain of CYP3A4 (P08684 whole entry): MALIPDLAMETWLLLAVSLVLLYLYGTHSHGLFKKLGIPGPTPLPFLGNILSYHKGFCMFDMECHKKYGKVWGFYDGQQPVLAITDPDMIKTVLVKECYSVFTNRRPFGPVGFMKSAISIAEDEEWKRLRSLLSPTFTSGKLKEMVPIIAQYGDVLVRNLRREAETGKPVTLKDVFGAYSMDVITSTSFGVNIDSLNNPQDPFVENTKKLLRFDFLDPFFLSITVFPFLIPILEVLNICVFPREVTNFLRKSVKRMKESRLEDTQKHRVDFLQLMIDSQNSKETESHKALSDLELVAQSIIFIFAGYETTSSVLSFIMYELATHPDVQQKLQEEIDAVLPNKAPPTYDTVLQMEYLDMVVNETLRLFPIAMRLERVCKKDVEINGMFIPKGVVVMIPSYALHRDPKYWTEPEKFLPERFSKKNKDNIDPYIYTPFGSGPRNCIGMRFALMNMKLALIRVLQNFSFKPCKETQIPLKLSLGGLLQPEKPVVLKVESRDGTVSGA
Chain of CYP2C9 (P11712 whole entry): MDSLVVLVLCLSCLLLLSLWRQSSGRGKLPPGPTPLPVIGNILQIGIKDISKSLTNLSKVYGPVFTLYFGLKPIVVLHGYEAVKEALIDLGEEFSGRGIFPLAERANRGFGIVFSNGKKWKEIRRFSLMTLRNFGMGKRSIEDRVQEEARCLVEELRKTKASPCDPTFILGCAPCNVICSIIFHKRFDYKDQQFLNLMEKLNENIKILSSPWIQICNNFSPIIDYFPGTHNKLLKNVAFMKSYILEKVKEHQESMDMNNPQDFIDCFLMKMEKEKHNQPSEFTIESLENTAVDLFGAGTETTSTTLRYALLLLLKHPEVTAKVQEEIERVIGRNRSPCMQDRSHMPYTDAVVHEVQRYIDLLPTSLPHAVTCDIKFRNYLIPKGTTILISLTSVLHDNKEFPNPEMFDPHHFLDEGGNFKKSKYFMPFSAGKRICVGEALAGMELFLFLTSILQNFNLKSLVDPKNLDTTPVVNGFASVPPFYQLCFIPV

SMILES | EC50 [1, 7] [nM] | EC90 [1, 7] [nM] | EC50 [2, 8] [nM] | Photohemolysis test, potential of phototoxicity (PI and met-Hb) [3] | Potency shift value [4] | IC50 [5] [nM] | CYP3A4 (MDZ) MBI, shifted IC [6] | EC90 [1, 9] [nM] | EC50 [1, 10] [nM] | EC50 [2, 11] [nM]
Cc1c([C@H](OC(C)(C)C)C(=O)O)c(-c2ccc(F)cc2)c2cc(C)n3c2c1N(C)CC3 [Compound I-048] | 1.2 | 1.5 | 11 | (−) (negative criteria (−), PI<10% and changes in absorbance at 630 nm<0.05, respectively) | 9.2 | > 20000 |  |  |  | 
Cc1c([C@H](OC(C)(C)C)C(=O)O)c(-c2ccc(Cl)cc2)c2cc(C)n3c2c1N(CCN(C)C)[C@H](C)C3 [Compound I-112] | 4.9 | 11 | 18 | (−) (negative criteria (−), PI<10% and changes in absorbance at 630 nm<0.05, respectively) | 3.5 | > 20000 |  |  |  | 
Cc1c([C@H](OC(C)(C)C)C(=O)O)c(-c2ccc(Cl)cc2)c2cc(C)n3c2c1N(c1ncc(F)cn1)CC3 [Compound I-122] | 1.3 | 2.9 | 5.1 | (−) (negative criteria (−), PI<10% and changes in absorbance at 630 nm<0.05, respectively) | 23 | > 20000 | (−) (When a shifted IC was 1.0 or less, this was defined as negative) |  |  | 
Cc1c([C@H](OC(C)(C)C)C(=O)O)c(-c2ccc(Cl)cc2)c2cc(C)n3c2c1N(c1ncc2ccccc2n1)CC3 [Compound I-157] |  |  | 12 |  | 12 | > 20000 | (−) (When a shifted IC was 1.0 or less, this was defined as negative) |  |  | 
Cc1nc(N2CCn3c(C)cc4c(-c5ccc(Cl)cc5)c([C@H](OC(C)(C)C)C(=O)O)c(C)c2c43)no1 [Compound I-176] |  |  |  | (−) (negative criteria (−), PI<10% and changes in absorbance at 630 nm<0.05, respectively) | 12 |  | (−) (When a shifted IC was 1.0 or less, this was defined as negative) | 5.6 | 2.3 | 4.6
Cc1ccc(-c2c([C@H](OC(C)(C)C)C(=O)O)c(Cl)c3c4c2cc(C)n4CCN3C)cc1 [Compound I-187] |  |  |  |  | 11 |  | (−) (When a shifted IC was 1.0 or less, this was defined as negative) | 2.2 | 1 | 4.8
CCOc1cnc(N2CCn3c(C)cc4c(-c5ccc(C)cc5)c([C@H](OC(C)(C)C)C(=O)O)c(C)c2c43)nc1 [Compound I-197] | 1.3 | 2.2 |  | (−) (negative criteria (−), PI<10% and changes in absorbance at 630 nm<0.05, respectively) | 32 | > 20000 |  |  |  | 
